# Assays:
# [1] = test system: NIH3T3/v-Ras; assay: Soft-agar growth of v-Ras-transformed fibroblasts; type: cell-based, mouse; conditions: 1 mM every 2-3 days
# Method: (§1) Cell proliferation, soft-agar growth and Apo-BrdU labeling studies. Proliferating fibroblasts and human tumor cells were counted by phase-contrast microscopy for viable cells (using tyrpan blue exclusion). Colony formation assays in six-well dishes and quantification of colonies by iodonitrotetrazolium violet have been previously described (Turkson, J. et al. (1999)). Treatment of cells with inhibitors was initiated 1 day after seeding cells by adding 75 μl of medium with or without inhibitor, and repeated every two to three days. Apoptosis was measured by Apo-BrdU labeling and following the supplier's (PharMingen; San Diego, Calif.) instructions.
# (§2) Previous studies with PY*LKTK-MTS (SEQ ID NO. 1) (Turkson, J. et al., 2001)) confirmed that inhibition of constitutive Stat3 activation blocks Src transformation (Turkson, J. et al. (1998); Turkson, J. et al., (1999); Bromberg, J. R. et al. (1998)).
# [2] = test system: MDA-MB-231; type: cell-based, human; conditions: 1 mM, MDA-MB-231, four days
# Method: as §1
# (§3) Stat3 has an essential role in cell proliferation, and constitutively-active Stat3 is required for growth of transformed and tumor cells that harbor aberrant Stat3 signaling. Studies were performed to determine the effects of the peptidomimetic-mediated inhibition of Stat3 on cell proliferation using trypan blue exclusion for viable cell counts.
# [3] = test system: MDA-MB-453; type: cell-based, human; conditions: 1 mM
# Method: as §1, §3
# [4] = test system: NIH3T3/v-Src; assay: Soft-agar growth of v-Src-transformed fibroblasts; type: cell-based, mouse; conditions: 1 mM every 2-3 days
# Method: as §1, §2
# [5] = target: Stat3 (Mus musculus, UniProt P42227); type: cell-based; set-up: nuclear extracts prepared from v-Src-transformed NIH3T3/v-Src; endogenous in cells; host or cells: NIH3T3/v-Src
# Method: (§4) Nuclear extract preparation and gel shift assays. Nuclear extracts were prepared from cell lines and used for electrophoretic mobility shift assay (EMSA) as previously described (Garcia, R. et al. (1997); Yu, C. L. et al. (1995); Turkson, J. et al. (1998)). In some cases, cells were pre-treated with peptidomimetics for the indicated times (12-48 h) prior to harvesting for nuclear extract preparation. In other studies, nuclear extracts were pre-incubated with peptidomimetics for 30 min at room temperature prior to incubation with radiolabeled probe. The ^32P-radiolabeled oligonucleotide probes used are hSIE (high affinity sis-inducible element, m67 variant, 5′-[…]-3′) (SEQ ID NO. 3) that binds both Stat1 and Stat3 (Garcia, R. et al. (1997); Wagner B. J. et al. (1990)) and MGFe (mammary gland factor element from the bovine β-casein gene promoter, 5′-[…]-3′) (SEQ ID NO. 4) that binds Stat1 and Stat5 (Gouilleux, F. et al. (1995); Seidel, H. M. et al. (1995)).
# [6] = target: T1, Stat3 (Homo sapiens, UniProt P40763); type: cell-based
# T1 construct: endogenous in cells; host or cells: A549, MDA-MB-231, MDA-MB-435, MDA-MB-468
# Method: as §4
# T1 sequence (P40763 whole entry): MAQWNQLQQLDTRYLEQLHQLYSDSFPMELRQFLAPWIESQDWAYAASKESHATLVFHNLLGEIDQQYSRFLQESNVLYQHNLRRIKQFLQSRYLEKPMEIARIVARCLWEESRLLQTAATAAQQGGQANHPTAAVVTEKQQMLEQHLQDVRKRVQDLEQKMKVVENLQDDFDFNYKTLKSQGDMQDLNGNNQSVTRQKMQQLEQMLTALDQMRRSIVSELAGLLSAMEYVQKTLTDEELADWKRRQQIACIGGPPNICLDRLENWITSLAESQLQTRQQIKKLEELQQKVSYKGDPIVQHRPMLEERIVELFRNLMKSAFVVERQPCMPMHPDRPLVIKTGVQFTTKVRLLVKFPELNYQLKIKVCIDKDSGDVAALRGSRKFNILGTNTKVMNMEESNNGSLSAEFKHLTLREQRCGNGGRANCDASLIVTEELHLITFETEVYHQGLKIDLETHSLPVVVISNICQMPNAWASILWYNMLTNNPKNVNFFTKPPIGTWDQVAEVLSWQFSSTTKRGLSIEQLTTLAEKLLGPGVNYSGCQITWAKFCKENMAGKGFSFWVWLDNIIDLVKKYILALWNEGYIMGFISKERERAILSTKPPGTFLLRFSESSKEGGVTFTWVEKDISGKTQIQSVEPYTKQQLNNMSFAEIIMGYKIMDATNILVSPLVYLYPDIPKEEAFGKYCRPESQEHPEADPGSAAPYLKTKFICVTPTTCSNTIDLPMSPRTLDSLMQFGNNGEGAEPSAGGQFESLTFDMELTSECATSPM
# Stat3 (Mus musculus, UniProt P42227), sequence (P42227 whole entry): as the sequence (P40763 whole entry) above, with E760D counted along it
smiles,measurement,setting,value
CC(C)CC(NC(=O)C(Cc1ccc(OP(=O)(O)O)cc1)NC(=O)c1ccc(C#N)cc1)C(=O)O (stereo not shown) [ISS 610],soft-agar growth,[1],no effect
same,cell proliferation,[2],significantly suppresses proliferation
same,cell proliferation,[3],no effect on cell proliferation
same,growth in soft-agar suspension,[4],significantly suppressed
same,Stat3 activation in Src-transformed fibroblasts (EMSA),[5],time-dependent reduction of Stat3 activation
same,Stat3 activation in breast carcinoma cells (EMSA),[6],time-dependent reduction of Stat3 activation
same,Stat3 activation in human non-small cell lung carcinoma cells (EMSA),[6],time-dependent reduction of Stat3 activation

# Source: US7842671B1, “Peptidomimetic inhibitors of STAT activity and uses thereof” (University of South Florida, priority 2003, dated 2010)
